Experiment [1] concerns the target T1, recombinant human SK (Homo sapiens, UniProt Q9NYA1).
T1 construct: glutathione-S-transferase (GST) (N); made in house; host or cells: bacteria (pGEX vector)
Nature of the experiment: Inhibition of recombinant human SK, LC/MS/MS assay. The class given is biochemical. The note with it: 6 μg/ml compound. The protocol:
(§1) An assay for identifying inhibitors of recombinant human SK has been established (French et al., 2003, Cancer Res 63: 5962). cDNA for human SK was subcloned into a pGEX bacterial expression vector, which results in expression of the enzyme as a fusion protein with glutathione-S-transferase, and the fusion protein is then purified on a column of immobilized glutathione. SK activity is measured by incubation of the recombinant SK with [^3H]sphingosine and 1 mM ATP under defined conditions, followed by extraction of the assay mixture with chloroform:methanol under basic conditions. […] Radioactivity in aliquots of the aqueous phase is then quantified as a measure of [^3H]S1P formation. There is a low background level of partitioning of [^3H]sphingosine into the aqueous phase, and addition of the recombinant SK greatly increases the formation of [^3H]S1P.
In an alternate assay procedure, the recombinant human SK was incubated with unlabeled sphingosine and ATP as described above. After 30 minutes, the reactions were terminated by the addition of acetonitrile to directly extract the newly synthesized S1P. The amount of S1P in the samples is then quantified as follows. C17 base D-erythro-sphingosine and C17 S1P are used as internal standards for sphingosine and S1P, respectively. These seventeen-carbon fatty acid-linked sphingolipids are not naturally produced, making these analogs excellent standards. The lipids are then fractionation by High-Performance Liquid Chromatography using a C8-reverse phase column eluted with 1 mM methanolic ammonium formate/2 mM aqueous ammonium formate. A Finnigan LCQ Classic LC-MS/MS is used in the multiple reaction monitoring positive ionization mode to acquire ions at m/z of 300 (precursor ion)→282 (product ion) for sphingosine and 380→264 for S1P. Calibration curves are generated by plotting the peak area ratios of the synthetic standards for each sphingolipid, and used to determine the normalized amounts of sphingosine and S1P in the samples.
Each Compound of this invention was tested for its ability to inhibit recombinant SK using the LC/MS/MS assay described above. Typically, the Compounds were individually dissolved in dimethylsulfoxide and tested at a final concentration of 6 micrograms/ml.

Experiment [2] deals with MCF-7 human breast adenocarcinoma cells. Put plainly: Cytotoxicity, SRB assay, 48 h. It counts as cell-based. The note with it: Homo sapiens, MCF7; Table 6; 48 h, SRB, inhibition of cell proliferation; read-out: MCF-7 IC50. The protocol: To further assess the biological efficacies of the Compounds in intact cells, each Compound was evaluated for cytotoxicity using human cancer cell lines. These experiments followed methods that have been extensively used. Cell lines tested included MCF-7 human breast adenocarcinoma cells. The indicated cell lines were treated with varying doses of the test Compound for 48 h. Cell survival was then determined using the SRB binding assay (Skehan et al., 1990, J Natl Cancer Inst 82: 1107), and the concentration of compound that inhibited proliferation by 50% (the IC50) was calculated. Values (in μM) represent the mean±sd for replicate trials.
(Sulforhodamine B stains cellular protein and so reports cell mass.)

Experiment [3] concerns endogenous SK in MDA-MB-231 human breast carcinoma cells. Nature of the experiment: Intact cell assay of endogenous SK ([3H]sphingosine to [3H]S1P). The class given is cell-based. Particulars: MDA-MB-231 cells, 20 μg/ml compound. The protocol:
We have previously described an intact cell assay where, following treatment with a test compound, MDA-MB-231 human breast carcinoma cells are incubated with [^3H]sphingosine at a final concentration of 1 μM (French et al., 2003, Cancer Res 63: 5962). The cells take up the exogenous [^3H]sphingosine and convert it to [^3H]S1P through the action of endogenous SK. The resulting [^3H]S1P is isolated via charge-based separation as indicated above. […] For potency studies, MDA-MB-231 cells were exposure to varying concentrations of a test Compound and then assayed for conversion of [^3H]sphingosine to [^3H]S1P.

In experiment [4] the target is T1, recombinant human SK. Nature of the experiment: Recombinant human SK assay with [3H]sphingosine. The class given is biochemical. The note with it: positive control. As for the experimental part: as §1

T1 sequence (Q9NYA1 whole entry): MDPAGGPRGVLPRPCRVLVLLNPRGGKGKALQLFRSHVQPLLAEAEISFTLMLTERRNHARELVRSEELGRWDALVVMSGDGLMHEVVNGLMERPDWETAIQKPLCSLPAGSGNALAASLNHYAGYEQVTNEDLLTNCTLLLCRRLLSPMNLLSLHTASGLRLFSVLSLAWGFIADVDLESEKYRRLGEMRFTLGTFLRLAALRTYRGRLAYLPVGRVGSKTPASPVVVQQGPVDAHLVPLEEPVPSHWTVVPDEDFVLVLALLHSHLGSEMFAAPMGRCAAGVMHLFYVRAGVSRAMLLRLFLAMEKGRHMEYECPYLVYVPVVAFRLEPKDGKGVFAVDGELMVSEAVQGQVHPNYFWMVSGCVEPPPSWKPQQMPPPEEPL

The term inhibition denotes the change of the read-out against control, counted positive when it falls. By IC50 is commonly meant the midpoint of a concentration-inhibition curve. In the case of `CCCCCCCCCCCCCC(=O)Nc1nc(-c2ccc(Cl)cc2)cs1` [Compound 2, Tetradecanoic acid [4-(4-chloro-phenyl)-thiazol-2-yl]-amide], the inhibition at 6 µg/mL on recombinant human SK [1] stood at 30%. In experiment [2], the IC50 stood at 1.9 µM.

Regarding `CCCCCCCCCCCCCCCC(=O)Nc1nc(-c2ccc(Cl)cc2)cs1` [Compound 3, Hexadecanoic acid [4-(4-chloro-phenyl)-thiazol-2-yl]-amide], the inhibition at 6 µg/mL at recombinant human SK [1] came to 88%. The IC50 in experiment [2] was determined as 111 µM. Further, the “Cellular S1P (% inhibition)” value in experiment [3] worked out at 34%.

Turning to `C=CCCCCCCCCC(=O)Nc1nc(-c2ccc(Cl)cc2)cs1` [Compound 4, Undec-10-enoic acid [4-(4-chloro-phenyl)-thiazol-2-yl]-amide], the inhibition at 6 µg/mL at recombinant human SK [1] stood at 53%. Also, the IC50 in experiment [2] was determined as 33 µM.

With `O=C(C=Cc1ccc([N+](=O)[O-])cc1)Nc1nc(-c2ccc(Cl)cc2)cs1` [Compound 5, N-[4-(4-Chloro-phenyl)-thiazol-2-yl]-3-(4-nitro-phenyl)-acrylamide], the inhibition at 6 µg/mL on recombinant human SK [1] was determined as 0%. Further, the IC50 in experiment [2] came to 16 µM.

As for `CCCCCCCCC=CCCCCCCCC(=O)Nc1nc(-c2ccc(Cl)cc2)cs1` [Compound 6, Octadec-9-enoic acid [4-(4-chloro-phenyl)-thiazol-2-yl]-amide], the inhibition at 6 µg/mL at recombinant human SK [1] was 0%. In experiment [2], the IC50 came to 105 µM. Turning to `O=C(C=Cc1ccccc1)Nc1nc(-c2ccc(Cl)cc2)cs1` [Compound 7, N-[4-(4-Chloro-phenyl)-thiazol-2-yl]-3-phenyl-acrylamide], the inhibition at 6 µg/mL at recombinant human SK [1] amounted to 71%. In experiment [2], the half-maximal inhibitory concentration (IC50) was found to be 18 µM. `COc1cc(C=CC(=O)Nc2nc(-c3ccc(Cl)cc3)cs2)ccc1OC(C)=O` [Compound 10, Acetic acid 4-{2-[4-(4-chloro-phenyl)-thiazol-2-ylcarbamoyl]-vinyl}-2-methoxy-phenyl ester]: the inhibition at 6 µg/mL on recombinant human SK [1] stood at 100%. For the same compound, in experiment [2], the IC50 came to 24 µM.

`CCCC(=O)Oc1ccccc1C=CC(=O)Nc1nc(-c2ccc(Cl)cc2)cs1` [Compound 13, Butyric acid 2-{2-[4-(4-chloro-phenyl)-thiazol-2-ylcarbamoyl]-vinyl}-phenyl ester]: on recombinant human SK [1], the inhibition at 6 µg/mL was 0%. Moreover, in experiment [2], the half-maximal inhibitory concentration (IC50) was found to be 2.3 µM. For the compound `CCCC(=O)Oc1cccc(C=CC(=O)Nc2nc(-c3ccc(Cl)cc3)cs2)c1` [Compound 14, Butyric acid 3-{2-[4-(4-chloro-phenyl)-thiazol-2-ylcarbamoyl]-vinyl}-phenyl ester], the inhibition at 6 µg/mL on recombinant human SK [1] was found to be 0%. Moreover, the half-inhibitory concentration (IC50) in experiment [2] is 2.9 µM. `CCCC(=O)Oc1ccc(C=CC(=O)Nc2nc(-c3ccc(Cl)cc3)cs2)cc1` [Compound 15, Butyric acid 4-{2-[4-(4-chloro-phenyl)-thiazol-2-ylcarbamoyl]-vinyl}-phenyl ester]: the inhibition at 6 µg/mL on recombinant human SK [1] came out at 73%. For the same compound, the concentration for half-maximal inhibition (IC50) in experiment [2] was found to be 2.9 µM.

As to `CCCC(=O)Oc1ccc(CCC(=O)Nc2nc(-c3ccc(Cl)cc3)cs2)cc1OC` [Compound 29, Butyric acid 4-{2-[4-(4-chloro-phenyl)-thiazol-2-ylcarbamoyl]-ethyl}-2-methoxy-phenyl ester], at recombinant human SK [1], the inhibition at 6 µg/mL worked out at 0%. Moreover, the concentration for half-maximal inhibition (IC50) in experiment [2] amounted to 26 µM. Turning to `CCCC(=O)Oc1ccc(CC(=O)Nc2nc(-c3ccc(Cl)cc3)cs2)cc1[N+](=O)[O-]` [Compound 30, Butyric acid 4-{[4-(4-chloro-phenyl)-thiazol-2-ylcarbamoyl]-methyl}-2-nitro-phenyl ester], the inhibition at 6 µg/mL on recombinant human SK [1] is 0%. In addition, the concentration for half-maximal inhibition (IC50) in experiment [2] turned out to be 32 µM. `O=C(NCc1ccncc1)c1nc(-c2ccc(Cl)cc2)cs1` [Compound 34, 4-(4-Chloro-phenyl)thiazole-2-carboxylic acid (pyridin-4-ylmethyl)amide]: on recombinant human SK [1], the inhibition at 6 µg/mL came out at 0%. In addition, in experiment [2], the half-maximal inhibitory concentration (IC50) amounted to 38 µM. As to `CN(C)c1ccc(CNC(=O)c2nc(-c3ccc(Cl)cc3)cs2)cc1` [Compound 35, 4-(4-Chloro-phenyl)-thiazole-2-carboxylic acid 4-dimethylamino-benzylamide], the inhibition at 6 µg/mL at recombinant human SK [1] is 80%. The half-maximal inhibitory concentration (IC50) in experiment [2] turned out to be 130 µM. As to `Clc1ccc(-c2csc(N(CCCc3ccccc3)CCCc3ccccc3)n2)cc1` [Compound 71, [4-(4-Chloro-phenyl)-thiazol-2-yl]-bis-(3-phenyl-propyl)-amine], the inhibition at 6 µg/mL at recombinant human SK [1] came to 44%. In addition, the IC50 in experiment [2] stood at 111 µM. Take `Clc1ccc(-c2csc(N(Cc3ccccc3)Cc3ccccc3)n2)cc1` [Compound 72, Dibenzyl-[4-(4-chloro-phenyl)-thiazol-2-yl]-amine]: the inhibition at 6 µg/mL at recombinant human SK [1] is 79%. Further, the IC50 in experiment [2] came to 127 µM. Take `O=C(Nc1nc2cc(Cl)ccc2s1)c1ccccc1O` [Compound 96, N-(5-Chloro-benzothiazol-2-yl)-2-hydroxy-benzamide]: the IC50 in experiment [2] stood at 24 µM. Take `O=C(Nc1nc2cc(Cl)ccc2o1)c1cccc(F)c1` [Compound 97, N-(5-Chloro-benzooxazol-2-yl)-3-fluoro-benzamide]: the inhibition at 6 µg/mL at recombinant human SK [1] came out at 71%. Besides, the IC50 in experiment [2] is 1.7 µM. For the compound `CCCCCCCCCCCCC/C=C/[C@@H](O)[C@H](CO)N(C)C` [DMS, D-erythro-N,N-dimethylsphingosine], the “concentrations at which SK activity is completely inhibited” value at recombinant human SK [4] was “above 25 μM”.

For the origin of these results see patent US20100137315A1, “Sphingosine Kinase Inhibitors and Methods of Their Use” (APOGEE BIOTECHNOLOGY CORPORATION, priority 2005, published 2010).
